# Results published in patent publication US5750504A, “Antimicrobial proteins” (Zeneca Agrochemicals, priority 1996, dated 1998).
# Experiments:
# [1] = system: Bacillus subtilis JHCC 553331; experiment: Antibacterial activity assay (microspectrophotometry); type: cell-based
# Experimental: Antibacterial activity was measured microspectrophotometrically as follows. A bacterial suspension was prepared by inoculating soft nutrient agarose (tryptone, 10 g/l; Seaplaque agarose (FMC), 5 g/l). Aliquots (80 μl) of the bacterial suspension (10^5 colony forming units per ml) were added to filter-sterilized samples (20 μl) in flat-bottom 96-well microplates. The absorbance at 595 nm of the culture was measured with the aid of a microplate reader after 30 minutes and 24 hours of incubation at 28° C. Percent growth inhibition was calculated as described above for the antifungal activity assay.
# The antibacterial activities of Ah-AMP1 and Hs-AFP1 were measured on four gram positive bacteria (Bacillus subtilis JHCC 553331; Micrococcus luteus ATCC 93411; Staphylococcus aureus ATCC 25923; Streptococcus feacolis ATCC 29212) and two gram negative bacteria (Eschericia coli HB101 and Proteus vulgaris JHCC 558711).
# [2] = system: crude α-amylase extract from guts of adult cockroaches; experiment: Inhibition of α-amylase; type: biochemical, Blatta orientalis; details: cockroach gut enzyme; rates as high as 200 μg/ml
# Experimental: (§1) A crude α-amylase extract was prepared from dissected guts of adult cockroaches (Blatta orientalis) by homogenising in 20 mM Tris/HCl, pH 7.5, 10 mM CaCl2 and removal of cell-debris by centrifugation. Human and porcine α-amylases were purchased from Sigma. Type 1-α-amylaseinhibitor from wheat (purchased from Sigma) was used as a positive control. Amylase extracts were incubated with peptides for 20 min at 30° C. prior to addition of starch and enzyme activity was detected using the method of Bernfeld (1955, Methods Enzymol, Colwick and Kaplan eds, vol 1:149-158).
# (§2) The α-amylase inhibition activities of Hs-AFP1 and Ah-AMP1 were compared on α-amylases from the three sources to that of the Sorgum bicolor homologue SIα3, previously reported to inhibit insect gut α-amylases (Bloch and Richardson, 1991, FEBS Lett, 279:101-104). SIα3 inhibited the activity of the enzymes from insect gut and human saliva to greater than 70% at rates as low as 5 μg/ml.
# [3] = biological target: T1, Human α-amylase (human saliva) (Homo sapiens, UniProt P0DUB6); experiment: Inhibition of α-amylase; type: biochemical; details: human enzyme; rates as high as 200 μg/ml
# T1 construct: the enzymes from insect gut and human saliva; purchased Sigma; host or cells: human saliva
# T1 sequence (P0DUB6 16-511): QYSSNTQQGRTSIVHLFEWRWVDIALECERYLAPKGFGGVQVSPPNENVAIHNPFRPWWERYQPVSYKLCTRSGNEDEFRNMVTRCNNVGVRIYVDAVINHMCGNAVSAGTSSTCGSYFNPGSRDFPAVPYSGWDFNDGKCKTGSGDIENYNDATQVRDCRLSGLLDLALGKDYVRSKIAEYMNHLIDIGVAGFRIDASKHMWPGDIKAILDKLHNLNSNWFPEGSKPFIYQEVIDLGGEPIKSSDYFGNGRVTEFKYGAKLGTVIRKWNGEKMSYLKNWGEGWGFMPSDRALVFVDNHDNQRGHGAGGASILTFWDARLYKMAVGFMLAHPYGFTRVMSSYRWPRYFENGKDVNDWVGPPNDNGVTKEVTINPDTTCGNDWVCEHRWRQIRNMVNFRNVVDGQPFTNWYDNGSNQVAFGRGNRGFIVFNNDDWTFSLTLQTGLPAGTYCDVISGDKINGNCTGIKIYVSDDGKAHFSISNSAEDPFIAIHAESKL
# Experimental: as §1, §2
# [4] = biological target: T2, porcine α-amylase (porcine pancreas) (Sus scrofa, UniProt P00690); experiment: Inhibition of α-amylase; type: biochemical; details: porcine enzyme; rates as high as 200 μg/ml
# T2 construct: the enzyme from porcine pancreas; purchased Sigma; host or cells: porcine pancreas
# T2 sequence (P00690 16-511): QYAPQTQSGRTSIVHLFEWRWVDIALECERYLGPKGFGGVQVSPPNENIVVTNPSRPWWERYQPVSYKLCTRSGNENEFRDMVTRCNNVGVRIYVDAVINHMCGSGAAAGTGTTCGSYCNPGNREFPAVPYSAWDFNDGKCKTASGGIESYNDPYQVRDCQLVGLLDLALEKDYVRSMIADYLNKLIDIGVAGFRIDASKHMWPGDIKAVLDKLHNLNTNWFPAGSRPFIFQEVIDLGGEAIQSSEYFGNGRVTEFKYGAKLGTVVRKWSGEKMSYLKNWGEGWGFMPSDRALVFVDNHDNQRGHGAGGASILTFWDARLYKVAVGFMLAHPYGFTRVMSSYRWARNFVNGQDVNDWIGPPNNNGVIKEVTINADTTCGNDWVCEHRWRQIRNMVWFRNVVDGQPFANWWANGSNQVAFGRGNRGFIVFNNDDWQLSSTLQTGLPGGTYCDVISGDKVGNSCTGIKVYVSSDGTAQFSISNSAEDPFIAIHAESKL
# Experimental: as §1, §2
# [5] = system: fungi; experiment: Morphological effect on fungal hyphae (fungi in general); type: cell-based
Substance,inhibition of bacterial growth ([1]; at 100 μg/ml),inhibition of α-amylase activity [2],inhibition of α-amylase activity [3],inhibition of α-amylase activity [4],hyperbranching of fungi [5],interference with fungal growth processes (hyphal length) [5],inhibition of bacterial growth ([1]; tested at 200 μg/ml)
"Ah-AMP1: Aesculus hippocastanum antimicrobial protein 1; 5 kDa polypeptide purified from seeds, 50 amino acids, SEQ ID NO 2 (LCNERPSQTWSGNCGNTAHCDKQCQDWEKASHGACHKRENHWKCFCYFNC)",inhibited growth,no inhibition,no inhibition,no inhibition,do not,reduction in hyphal length,–
"Hs-AFP1: Heuchera sanquinea antifungal protein 1; 5 kDa polypeptide purified from seeds, 54 amino acids, SEQ ID NO 1 (DGVKLCDVPSGTWSGHCGSSSKCSQQCKDREHFAYGGACHYQFPSVKCFCKRQC)",–,no inhibition,no inhibition,no inhibition,cause hyperbranching,reduction in hyphal length,did not inhibit the growth
